# Measurements from patent US20120196899A1, “METHODS AND PRODUCTS FOR TREATING INFLAMMATION” (Rock Creek Pharmaceuticals, Inc., priority 2010, published 2012).
# Test system: autoimmune thyroiditis
# Test: Autoimmune thyroiditis in thyroglobulin-immunized mice (Example 16B)
# Assay type: in vivo, CBA/J female mice
# Conditions: 0.05 mg/ml in drinking water
# Procedure: In another experiment, eighteen CBA/J female mice were immunized with mouse thyroglobulin, emulsified in complete Freund's adjuvant, on day 0 and day 7. One group of mice (n=10) drank regular water. […] Mice were sacrificed 21 days after the first immunization to collect the thyroid gland and the blood. The thyroid was analyzed for the presence of infiltrating mononuclear cells. The blood was analyzed for the levels of antibodies against thyroglobulin.
smiles,measurement,setting,value
"C1=CCC(c2cccnc2)NC1 (racemic) [Anatabine, 1,2,3,6-tetrahydro-[2,3′]bipyridinyl]",levels of thyroglobulin antibodies,day 21,had no effect on the levels of thyroglobulin antibodies
same,thyroiditis frequency and severity,"day 21, p=0.023",developed thyroiditis less frequently and of lower severity
